Among the data in PubChem BioAssay (NCI) are TGI values, retold here.

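All cell lines were grown in 96-well plates and treated with compound for 48 hours. TGI marks complete inhibition of growth.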 Bounds are passed on as bounds.

Common to all, as to test: NCI-60 cell line screen, 48 h
Assay [1] deals with RXF 393 renal.
Assay [2] concerns T-47D breast.
The test system of assay [3] is NCI/ADR-RES ovarian.
Assay [4] deals with OVCAR-3 ovarian.
Assay [5] relates to LOX IMVI melanoma.
Assay [6] concerns K-562 leukemia.
Assay [7] deals with ACHN renal.
For assay [8], the system named is KM12 colon.
Assay [9] concerns HCT-116 colon.
Assay [10] relates to MCF7 breast.

For the compound `Cc1nc(C)c(N2CCNCC2)c(=O)[nH]1`, the TGI in assay [1], in assay [2], in assay [3], in assay [4], in [5] and in assay [6] was greater than 100 µM each time. Besides, the TGI in assay [7], in [8], in assay [9] and in assay [10] was greater than 100 µM each time.
As to `O=c1[nH]cc(Cl)c(=O)[nH]1`, the TGI in assay [1], in assay [2], in assay [3], in assay [4], in assay [5] and in assay [6] was greater than 100 µM each time. For the same compound, the TGI in assay [7], in [8], in assay [9] and in assay [10] was greater than 100 µM each time.
Turning to `CCOC(=O)Nc1ccc2c(c1)c(CCCCCCc1nc3ccccc3c3ccc(NC(=O)OCC)cc13)nc1ccccc12`, the TGI was greater than 100 µM in assay [1]; greater than 100 µM in assay [2]; greater than 100 µM in [3]; 58.7 µM in assay [4]; 42.5 µM in assay [5]; greater than 100 µM in assay [6]. For the same compound, the TGI in assay [7], in assay [8], in [9] and in assay [10] was greater than 100 µM in each case.
